Measurements from PubChem BioAssay (NCI).
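These data come from cells grown in 96-well plates and exposed to compound for 48 hours at five concentrations. TGI denotes the concentration required for complete inhibition of growth.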

How the values were obtained:
Test in all cases: growth of human tumour cells (NCI), 48 h
[1] = tested on: EKVX NSCLC
[2] = tested on: BT-549 breast
[3] = tested on: MDA-MB-435
[4] = tested on: MCF7 breast
[5] = tested on: NCI/ADR-RES ovarian
[6] = tested on: U251 CNS
[7] = tested on: SW-620 colon
[8] = tested on: HL-60(TB) leukemia
[9] = tested on: MDA-MB-231 breast
[10] = tested on: HCC-2998 colon
[11] = tested on: K-562 leukemia
[12] = tested on: SR leukemia
[13] = tested on: HT29 colon
[14] = tested on: IGROV1 ovarian
[15] = tested on: UACC-62 melanoma
[16] = tested on: OVCAR-8 ovarian
[17] = tested on: M14 melanoma
[18] = tested on: T-47D breast
[19] = tested on: CCRF-CEM leukemia
[20] = tested on: SNB-75 CNS
[21] = tested on: HOP-92 NSCLC
[22] = tested on: UACC-257 melanoma
[23] = tested on: RXF 393 renal
[24] = tested on: RPMI-8226 leukemia
[25] = tested on: CAKI-1 renal
[26] = tested on: TK-10 renal
[27] = tested on: LOX IMVI melanoma
[28] = tested on: SK-MEL-28 melanoma
[29] = tested on: SK-OV-3 ovarian
[30] = tested on: SF-268 CNS
[31] = tested on: SF-539 CNS
[32] = tested on: OVCAR-5 ovarian
[33] = tested on: NCI-H226 lung
[34] = tested on: HOP-62 NSCLC
[35] = tested on: SK-MEL-5 melanoma
[36] = tested on: HCT-116 colon
[37] = tested on: A549 NSCLC
[38] = tested on: HS 578T breast
[39] = tested on: OVCAR-3 ovarian
[40] = tested on: PC-3 prostate
[41] = tested on: OVCAR-4 ovarian
[42] = tested on: MALME-3M melanoma
[43] = tested on: KM12 colon
[44] = tested on: COLO 205 colon
[45] = tested on: DU-145 prostate
[46] = tested on: NCI-H522 lung
[47] = tested on: 786-0 renal
[48] = tested on: MDA-N
[49] = tested on: HCT-15 colon
[50] = tested on: SK-MEL-2 melanoma
[51] = tested on: UO-31 renal
[52] = tested on: SN12C renal
[53] = tested on: SNB-19 CNS
[54] = tested on: ACHN renal
[55] = tested on: NCI-H23 lung
[56] = tested on: MOLT-4 leukemia
[57] = tested on: SF-295 CNS

Measured: TGI

CN=C(NN)NS(=O)(=O)c1cc(C)c(Cl)cc1S
75.3 µM: [38]
74.7 µM: [51]
97.7 µM: [46]
not listed: [54] | [55] | [56] | [57]
> 100 µM: all other assays above

COC1CC(OC2C(C)OC(OC3C(C)OC(OC4C(C)OC(O[C@H]5CC[C@@]6(C)C(=CC[C@]7(O)[C@@H]6C[C@@H](OC(=O)/C=C/c6ccccc6)[C@@]6(C)[C@]7(O)CC[C@@]6(O)C(C)=O)C5)CC4OC)CC3OC)CC2OC)OC(C)C1O (some centres undefined)
not listed: [23]
> 12.5 µM: all other assays above
